Assay results from patent US8119614B2, “Substitution derivatives of N6-benzyladenosine, methods of their preparation, their use for preparation of drugs, cosmetic preparations and growth regulators, pharmaceutical preparations, cosmetic preparations and growth regulators containing these compounds” (Ustav Experimentalni Botaniky Akademie Ved Ceske Republiky, priority 2002, dated 2012).

Experiments:
[1] = tested on: promyelocytic HL-60; assay: In vitro cytotoxic activity, Calcein AM assay, HL60; format: cell-based, human; conditions: 72 hours, read-out: IC 50 HL60
Text: (§1) One of the parameters used, as the basis for cytotoxicity assays, is the metabolic activity of viable cells. For example, a microtiter assay, which uses the Calcein AM, is now widely used to quantitate cell proliferation and cytotoxicity. For instance, this assay is used in drug screening programs and in chemosensitivity testing. Because only metabolically active cells cleave Calcein AM, these assays detect viable cells exclusively. The quantity of reduced Calcein AM corresponds to the number of vital cells in the culture.
(§2) Human T-lymphoblastic leukemia cell line CEM; promyelocytic HL-60 and monocytic U937 leukemias; breast carcinoma cell lines MCF-7; cervical carcinoma cells HELA; mouse fibroblasts NIH3T3; human erythroleukaemia K562 and human malignant melanoma cells G361 were used for routine screening of compounds. The cells were maintained in Nunc/Corning 80 cm^2 plastic tissue culture flasks and cultured in cell culture medium (DMEM with 5 g/l glucose, 2 mM glutamine, 100 U/ml penicillin, 100 μg/ml streptomycin, 10% fetal calf serum and sodium bicarbonate).
(§3) The cell suspensions that were prepared and diluted according to the particular cell type and the expected target cell density (10^4 cells per well based on cell growth characteristics) were added by pipette (80 μl) into 96/well microtiter plates. Inoculates were allowed a pre-incubation period of 24 hours at 37° C. and 5% CO2 for stabilisation. Four-fold dilutions of the intended test concentration were added at time zero in 20 μl aliquots to the microtiter plate wells. Usually, test compound was evaluated at six 4-fold dilutions. In routine testing, the highest well concentration was 166.7 μM, but it can be the matter of change dependent on the agent. All drug concentrations were examined in duplicates. Incubations of cells with the test compounds lasted for 72 hours at 37° C., in 5% CO2 atmosphere and 100% humidity. At the end of incubation period, the cells were assayed by using the Calcein AM. Ten microliters of the stock solution were pipetted into each well and incubated further for 1 hours. Fluorescence (FD) was measured with the Labsystem FIA Reader Fluoroscan Ascent (UK). The tumour cell survival (GI50) was calculated using the following equitation: GI50=(FDdrug exposed well/mean FDcontrol wells)×100%. The GI50 value, the drug concentration lethal to 50% of the tumour cells, was calculated from the obtained dose response curves (FIG. 3).

[2] = tested on: Triticum aestivum cv. Hereward; assay: Senescence inhibition on winter wheat leaf segments (chlorophyll retention); format: in vivo; conditions: for Concentration with highest activity: chlorophyll retention in excised wheat leaf tips, 96 h dark; for Activity (%) [10^−4 mol · l^−1 BAP = 100%]: chlorophyll retention, at concentration with highest activity
Description: Seeds of winter wheat, Triticum aestivum cv. Hereward, were washed under running water for 24 hours and then sown on vermiculite soaked with Knop's solution. They were placed in the grown chamber at 15° C. with a 16/8 h light period at 50 μmol·m^−2·s^−1. After 7 days, the first leaf was fully developed and the second leaf had started to grow. A tip section of the first leaf, approximately 35 mm long, was removed from 5 seedlings and trimmed slightly to a combined weight of 100 mg. The basal ends of the five leaf tips were placed in the wells of a microtiter polystyrene plate containing 150 μl of a cytokinin solution each. The entire plate was inserted into a plastic box lined with paper tissues soaked in distilled water to prevent leaf sections from drying out. After a 96 h incubation in the dark at 25° C., the leaves were removed and chlorophyll extracted by heating at 80° C. for 10 min in 5 ml of 80% ethanol (v/v). The sample volume was then restored to 5 ml by the addition of 80% ethanol (v/v). The absorbency of the extract was recorded at 665 nm. In addition, chlorophyll extracts from fresh leaves and leaf tips incubated in deionised water were measured. From the obtained data, the concentration with highest activity was selected for each compound tested. Relative activity of the compound at this concentration was calculated (Tab. 10). The activity obtained for 10^−4 M 6-benzylaminopurine (BAP) was postulated as 100%. The values shown are means of five replicates and the whole experiment was repeated twice. The cytokinins to be tested were dissolved in dimethylsulfoxide (DMSO) and the solution brought up to 10^−3M with distilled water. This stock was further diluted in distilled water to concentrations ranging from 10^−8M to 10^−4M.

[3] = tested on: Human T-lymphoblastic leukemia cell line CEM; assay: In vitro cytotoxic activity, Calcein AM assay, CEM; format: cell-based; conditions: 72 hours
Text: as §1, §2, §3

[4] = tested on: HOS; assay: In vitro cytotoxic activity, Calcein AM assay, HOS; format: cell-based; conditions: 72 hours
[5] = tested on: breast carcinoma cell lines MCF-7; assay: In vitro cytotoxic activity, Calcein AM assay, MCF7; format: cell-based, human; conditions: 72 hours, read-out: IC 50 MCF7
Text: as §1, §2, §3

[6] = tested on: mouse fibroblasts NIH3T3; assay: In vitro cytotoxic activity, Calcein AM assay, NIH-3T3; format: cell-based; conditions: 72 hours, read-out: IC 50 NIH-3T3
Text: as §1, §2, §3

[7] = tested on: human erythroleukaemia K562; assay: In vitro cytotoxic activity, Calcein AM assay, K-562; format: cell-based; conditions: 72 hours, read-out: IC 50 K-562
Text: as §1, §2, §3

[8] = tested on: Amaranthus caudatus cotyledon/hypocotyl explants; assay: Amaranthus bioassay (betacyanin content); format: in vivo; conditions: for Concentration with highest activity: 48 h dark; for Activity (%) [10^−5 mol · l^−1 BAP = 100%]: at concentration with highest activity
Description: Standard Amaranthus bioassay was performed with several modifications. The seeds of Amaranthus caudatus var. atropurpurea were surface-sterilised in 10% N-chlorobenzenesulfonamide (w/v) for 10 min and washed 5 times in deionized water. They were placed in 15 cm Petri dishes containing paper tissues saturated with deionized water. After 72 h of cultivation at 25° C. in darkness, the roots of the seedlings were cut off. The explants, consisting of two cotyledons and hypocotyls, were placed in 5 cm Petri dishes on two layers of filter paper soaked in 1 ml of incubation medium containing 10 μmol NA2HPO4-KH2PO4, pH 6.8, 5 μmol tyrosine and the cytokinin to be tested. There were 20 explants per dish. The procedure was carried out under a green safe light in a darkroom. After a 48 h of incubation at 25° C. in darkness, betacyanin was extracted by freezing the explants in 4 ml […] acetic acid. The concentration of betacyanin was determined by comparing the absorbance at 537 nm and 620 nm as follows: ΔA=[…]-[…]. From the obtained data, the concentration with highest activity was selected for each compound tested. Relative activity of the compound at this concentration was calculated (Tab. 12). […] The values shown in table 8 are means of five replicates and the entire test was repeated twice. The cytokinins to be tested were dissolved in dimethylsulfoxide (DMSO) and the solution brought up to 10^-3M with distilled water. This stock was further diluted in the respective media used for the biotest to concentrations ranging from 10^-8M to 10^-4M. […] From the data obtained (FIG. 14) the maximum effective concentration of the tested compound was calculated as well as its relative effectiveness at this concentration (Table 12). […]

Row | Structure (SMILES) | IC50 [1] [µM] | Concentration with highest activity [2] | Activity (%) [10^−4 mol · l^−1 BAP = 100%] [2] [%] | IC50 [3] [µM] | IC50 [4] [µM] | IC50 [5] [µM] | IC50 [6] [µM] | IC50 [7] [µM] | Concentration with highest activity [8] | Activity (%) [10^−5 mol · l^−1 BAP = 100%] [8] [%]
1 | OC[C@H]1O[C@@H](n2cnc3c(NCc4ccc(F)c(F)c4F)ncnc32)[C@H](O)[C@@H]1O [2,3,4-trifluorobenzylamino, 6-(2,3,4-trifluorobenzylamino)purine riboside] | 13 | 10^−4 mol · l^−1 | 144 ± 12 | 58.2 | > 167 | > 167 | > 167 | > 167 | – | –
2 | COc1ccc(CNc2ncnc3c2ncn3[C@@H]2O[C@H](CO)[C@@H](O)[C@H]2O)c(OC)c1 [2,4-dimethoxybenzylamino, 6-(2,4-dimethoxybenzylamino)purine riboside] | 39 | – | – | > 167 | > 167 | > 167 | > 167 | > 167 | 10^−5 mol · l^−1 | 3 ± 3
3 | COc1ccc(CNc2ncnc3c2ncn3[C@@H]2O[C@H](CO)[C@@H](O)[C@H]2O)cc1OC [3,4-dimethoxybenzylamino, 6-(3,4-dimethoxybenzylamino)purine riboside] | – | 10^−4 mol · l^−1 | 47 ± 6 | – | – | – | – | – | 10^−4 mol · l^−1 | 2 ± 1
4 | COc1cc(CNc2ncnc3c2ncn3[C@@H]2O[C@H](CO)[C@@H](O)[C@H]2O)cc(OC)c1 [3,5-dimethoxyxybenzylamino, 6-(3,5-dimethoxybenzylamino)purine riboside] | 18.8 | – | – | – | > 167 | > 167 | > 167 | > 167 | – | –
5 | O=[N+]([O-])c1cccc(CNc2ncnc3c2ncn3[C@@H]2O[C@H](CO)[C@@H](O)[C@H]2O)c1 [3-nitrobenzylamino, 6-(3-nitrobenzylamino)purine riboside] | – | – | – | – | – | – | – | – | 10^−4 mol · l^−1 | 66 ± 7
6 | O=[N+]([O-])c1ccc(CNc2ncnc3c2ncn3[C@@H]2O[C@H](CO)[C@@H](O)[C@H]2O)cc1 [4-nitrobenzylamino, 6-(4-nitrobenzylamino)purine riboside] | – | – | – | – | – | – | – | – | 10^−4 mol · l^−1 | 25 ± 3
7 | OCC1OC(n2cnc3c(NCc4ccccc4Cl)nc(Cl)nc32)C(O)C1O (centres unmarked) [R2 = Cl, 2-chlorobenzylamino] | 1.2 | – | – | 8.5 | > 167 | > 167 | > 167 | 61 | – | –
8 | OCC1OC(n2cnc3c(NCc4ccccc4F)nc(Cl)nc32)C(O)C1O (centres unmarked) [R2 = Cl, 2-fluorobenzylamino] | 2.5 | – | – | 4.2 | > 167 | > 167 | – | 30 | – | –
9 | OC[C@H]1O[C@@H](n2cnc3c(NCc4cccc(Cl)c4)nc(Cl)nc32)[C@H](O)[C@@H]1O [R2 = Cl, 3-chlorobenzylamino] | 0.6 | – | – | 1.1 | > 167 | > 167 | > 167 | 28 | – | –
10 | OCC1OC(n2cnc3c(NCc4ccc(Cl)cc4)nc(Cl)nc32)C(O)C1O (centres unmarked) [R2 = Cl, 4-chlorobenzylamino] | 5 | – | – | 5.8 | > 167 | > 167 | > 167 | 15 | – | –
11 | OC[C@H]1O[C@@H](n2cnc3c(NCc4ccc(F)cc4)nc(Cl)nc32)[C@H](O)[C@@H]1O [R2 = Cl, 4-fluorobenzylamino] | 0.7 | – | – | 1.5 | 19 | 12 | > 167 | 5.8 | – | –
12 | Nc1nc(NCc2ccccc2Cl)c2ncn(C3OC(CO)C(O)C3O)c2n1 (centres unmarked) [R2 = NH2,2-chlorobenzylamino] | 10.3 | – | – | 24.7 | > 167 | > 167 | > 167 | 78 | – | –
13 | Nc1nc(NCc2ccccc2F)c2ncn([C@@H]3O[C@H](CO)[C@@H](O)[C@H]3O)c2n1 [R2 = NH2,2-fluorobenzylamino] | 8.7 | – | – | 14.5 | > 167 | > 167 | – | 45 | – | –
14 | Nc1nc(NCc2cccc(Cl)c2)c2ncn([C@@H]3O[C@H](CO)[C@@H](O)[C@H]3O)c2n1 [R2 = NH2,3-chlorobenzylamino] | 5.8 | – | – | 10.2 | > 167 | > 167 | > 167 | 43 | – | –
15 | Nc1nc(NCc2ccc(F)cc2)c2ncn([C@@H]3O[C@H](CO)[C@@H](O)[C@H]3O)c2n1 [R2 = NH2,4-fluorobenzylamino] | 2.9 | – | – | 12.1 | 43 | 25 | > 167 | 13 | – | –
16 | CSc1nc(NCc2ccccc2Cl)c2ncn([C@@H]3O[C@H](CO)[C@@H](O)[C@H]3O)c2n1 [R2 = SCH3,2-chlorobenzylamino] | 7.4 | – | – | 14.6 | > 167 | > 167 | > 167 | 78 | – | –
17 | CSc1nc(NCc2ccccc2F)c2ncn([C@@H]3O[C@H](CO)[C@@H](O)[C@H]3O)c2n1 [R2 = SCH3,2-fluorobenzylamino] | 11.4 | – | – | 9.7 | > 167 | > 167 | – | 42 | – | –
18 | CSc1nc(NCc2cccc(Cl)c2)c2ncn([C@@H]3O[C@H](CO)[C@@H](O)[C@H]3O)c2n1 [R2 = SCH3,3-chlorobenzylamino] | 6.1 | – | – | 13.2 | > 167 | > 167 | > 167 | 35 | – | –
